Laboratory results published in PubChem BioAssay (NCI).
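In this assay, cells in 96-well plates receive the compound at five concentrations for 48 hours. Endpoints are linearly interpolated between the surrounding concentrations. Abbreviation: GI50, concentration required for 50% inhibition of growth. TGI: concentration producing complete growth inhibition.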

Experiments:
Assay in all cases: DTP human tumour cell line panel, 48 h
COLO 205 colon = system: COLO 205 colon
SNB-19 CNS = system: SNB-19 CNS
OVCAR-3 ovarian = system: OVCAR-3 ovarian
ACHN renal = system: ACHN renal
OVCAR-4 ovarian = system: OVCAR-4 ovarian
M19-MEL melanoma = system: M19-MEL melanoma
DLD-1 colon = system: DLD-1 colon
HOP-18 NSCLC = system: HOP-18 NSCLC
DMS 114 small cell lung = system: DMS 114 small cell lung
DMS 273 small cell lung = system: DMS 273 small cell lung
SNB-78 CNS = system: SNB-78 CNS
LXFL 529 NSCLC = system: LXFL 529 NSCLC
KM20L2 colon = system: KM20L2 colon
XF 498 CNS = system: XF 498 CNS

| Structure (SMILES) | TGI (COLO 205 colon) [µM] | TGI (SNB-19 CNS) [µM] | TGI (OVCAR-3 ovarian) [µM] | TGI (ACHN renal) [µM] | TGI (OVCAR-4 ovarian) [µM] | further results |
| --- | --- | --- | --- | --- | --- | --- |
| NC(=S)N/N=C/c1cc(CN2CCOCC2)c(N)cn1 | > 100 | > 100 | > 100 | > 100 |  |  |
| O=C1/C(=C/c2cccc([N+](=O)[O-])c2)CCCc2ccccc21 | 32.8 | 28.5 | 26.5 | 26.6 | 33.4 |  |
| CCOC(=O)CCc1c(C(=O)OCC)[nH]c(/C=C2/NC(=O)C(C)=C2CC)c1C | 33.2 | 37.2 | 16.1 | 60.9 | 8.91 |  |
| N#C/C(=C\c1ccc(Cl)cc1)c1nc2ccccc2c(=O)[nH]1 | > 100 | > 100 |  | > 100 | > 100 |  |
| CCCCCCN(C(=O)Oc1ccccc1)C(C#N)c1ccccc1 (centres undefined) | > 100 | > 100 | > 100 | > 100 | > 100 |  |
| Nc1ncc2c(n1)-c1ccccc1OC2NC1CC1 (centres undefined) | > 100 | > 100 | > 100 | > 100 | > 100 |  |
| CC1CN=C(NCc2ccccc2)S1 (centres undefined) |  | > 100 | > 100 | > 100 |  |  |
| COc1ccc2oc(=N)c(C(N)=S)cc2c1 | > 100 | > 100 |  | 79.2 | > 100 |  |
| COc1ccc(NC(=O)C2=C(SC)C(C#N)C(=O)N=C2N)cc1 (centres undefined) | > 100 | > 100 | > 100 | > 100 | > 100 |  |
| CC(=O)Nc1ccc(-c2nnc(SCC(=O)Nc3ccccc3Cl)o2)cc1 | > 100 | > 100 | > 100 | > 100 | > 100 | TGI (M19-MEL melanoma): > 100 µM; TGI (DLD-1 colon): > 100 µM; TGI (HOP-18 NSCLC): > 100 µM; TGI (DMS 114 small cell lung): > 100 µM; TGI (DMS 273 small cell lung): > 100 µM; TGI (SNB-78 CNS): > 100 µM; TGI (LXFL 529 NSCLC): > 100 µM; TGI (KM20L2 colon): > 100 µM |
| COc1cc(/C=C2\CCCC3=C2NC(N)=NC3c2cc(OC)c(OC)c(OC)c2)cc(OC)c1OC (centres undefined) |  |  |  |  | > 100 | GI50 (OVCAR-4 ovarian): 1.7 µM |
| COC(=O)n1c(=O)nc2c3c(ncn21)Oc1c(c(-c2ccccc2)nn1-c1ccccc1)C3c1ccc(Cl)cc1 (centres undefined) | 2.76 | 3.13 | 2.72 | 3.21 | 4.66 |  |
| N#Cc1c(-c2ccccc2)c(C#N)c(=O)n(NS(=O)(=O)c2ccccc2)c1O | > 100 | > 100 |  | > 100 | > 100 |  |
| COc1cc(C2c3cccc4cccc(c34)C3CCC(=O)N32)cc(O)c1O (centres undefined) | > 50 | > 50 | > 50 | > 50 | 45 |  |
| Cc1sc2ncnc(NCCc3ccccc3)c2c1C | 24.4 | > 100 | > 100 | 69.2 | 59 |  |
| Oc1ccccc1C=Nc1ccc(Oc2ccc(Cl)cc2)c(Cl)c1 | 41.1 | 49.6 | 38.5 | 88.3 | 66.2 |  |

| Structure (SMILES) | TGI (COLO 205 colon) [µM] | TGI (SNB-19 CNS) [µM] | TGI (OVCAR-3 ovarian) [µM] | TGI (ACHN renal) [µM] | TGI (OVCAR-4 ovarian) [µM] | further results |
| --- | --- | --- | --- | --- | --- | --- |
| CN(C)c1ccc(C2CC(=O)CC(c3ccc(N(C)C)cc3)C23C(=O)NC(=O)NC3=O)cc1 (centres undefined) | > 25 | > 25 | > 25 | > 25 | > 25 |  |
| Fc1ccc(C(OCCN2CCC3CCC(C2)N3CCCc2ccccc2)c2ccc(F)cc2)cc1 (centres undefined) | 2.67 | 22.3 | 14.8 | 18.2 | 22.3 |  |
| CC(=O)NNC=N/C(C#N)=C(\N)C#N | > 100 | > 100 | > 100 | > 100 | > 100 |  |
| C/C(C=O)=N\Nc1cc(C)c2ccccc2n1 | 33.2 | 52 | 29.1 | 29.9 | 27.8 |  |
| CC(=O)Nc1c(C)cc(OCC(=O)O)cc1C | > 100 | > 100 | > 100 | > 100 | > 100 |  |
| Cc1ccc(S(=O)(=O)N(c2ccccc2F)C2CCCCC2O)cc1 (centres undefined) | 71.3 | > 100 | 66.9 | > 100 | > 100 |  |
| C[N+](C)(C)CC1Cc2ccccc2C1=O (centres undefined) | > 6.59 | > 10 | > 10 | > 10 | 8.07 |  |
| CC1C2CC(C(C3C(=O)C4CC3C(C)(C)C4C)C2=O)C1(C)C (centres undefined) | > 100 | > 100 | > 100 | > 100 | > 100 |  |
| CSc1nc(C)cc(Nc2ccc(O)c(CN3CCCCC3)c2)n1 | > 100 | > 100 | > 100 | > 100 | > 100 |  |
| CC1=NC(=Cc2ccc(Cl)cc2)C(=O)N1n1c(-c2ccccc2)nc2ccccc2c1=O | > 100 | > 100 |  | 46.7 |  |  |
| CN(C(=O)C1=CCCCCC1)c1ccccc1I | 37.6 | > 100 | > 100 | > 100 | 86.9 |  |
| Oc1cn(-c2ccc(Cl)cc2)nc1-c1nnc(Nc2ccccc2)o1 | 51 | 50.5 | > 100 | 71.6 | > 100 |  |
| CCOP(=O)(CS(C)=O)O[C@@H]1C[C@H](C)CC[C@H]1C(C)C (some centres undefined) | 19.8 | 25.7 | 15.7 | 15.8 | > 39.3 |  |
| COc1ccc(/C=C2/C(=O)N(C(=O)c3ccc(Cl)cc3)N=C2C)cc1OC | > 100 | > 100 | > 100 | > 100 | > 100 | TGI (M19-MEL melanoma): > 100 µM; TGI (DLD-1 colon): > 100 µM; TGI (DMS 114 small cell lung): > 100 µM; TGI (XF 498 CNS): > 100 µM; TGI (SNB-78 CNS): > 100 µM; TGI (LXFL 529 NSCLC): > 100 µM; TGI (KM20L2 colon): > 100 µM |
| COc1c(O)cc(/C=C/c2cc(O)cc3c2[C@@]2(C(=O)O3)c3c(O)cc(O)cc3OC2c2cccc(O)c2)cc1O (some centres undefined) | > 100 | > 100 | > 100 | > 100 | 91 |  |
